US20220177453A1, “CRYSTALLIZATION OF SMAC MIMIC USED AS IAP INHIBITOR AND PREPARATION METHOD THEREOF” (CHIA TAI TIANQING PHARMACEUTICAL GROUP CO., LTD., priority 2019, published 2022)

Key:
[1] = Hygroscopicity study (DVS); format: physicochemical
Experimental: Instrument model: SMS DVS Advantage
Test conditions: crystalline form A of the compound of formula (I) (10-15 mg) was placed in a DVS sample tray for testing.
The DVS parameters are as follows: • Temperature: 25° C. • Balancing: dm/dt=0.01%/min (shortest: 10 min, longest: 180 min) • Drying: drying at 0% RH for 120 min • RH (%) measurement gradient: 10% • RH (%) measurement gradient range: 0%-90%-0%

[2] = Long-term accelerated stability test; format: physicochemical
Experimental: Long-term accelerated test: 22 parts of crystalline form A of the compound of formula (I) each containing 1 50 g were prepared. The samples were separately put into a double-layer LDPE bag with each layer of LDPE bag sealed separately. The bag was then put into an aluminum foil bag for heat sealing. At inspection time points, the corresponding test samples were taken out, covered with bottle caps. 0-day samples were thawed to room temperature and directly analyzed. Approximately 10 mg of the test article was subjected to XRPD. The compounds were placed in the following conditions and samples were taken at different time points for determining their properties, XRPD pattern, content and related substances.

[3] = Influencing factor (high temperature, high humidity) and irradiation stability tests; format: physicochemical
[4] = system: MDA-MB-231 triple negative breast cancer CDX; assay: In vivo efficacy study 1, MDA-MB-231 triple negative breast cancer CDX model; parameters: species or system BALB/c nude mice
Experimental: (§1) In vivo efficacy study was conducted on BALB/c nude mice by subcutaneously implanting human tumor cell line-derived xenograft (CDX) from MDA-MB-231 triple negative breast cancer patients
(§2) BALB/c nude mice, female, aged 6-8 weeks, about 18-22 g, were kept in a special pathogen-free environment and in separate ventilated cages (3 mice per cage). All cages, bedding and water were disinfected prior to use. All animals had free access to standard certified commercial laboratory diets. 48 mice were purchased from Shanghai BK Laboratory Animal Co., LTD. for the study. Each mouse was implanted subcutaneously in the right flank with cancer cells (10×10^6 cells in 0.2 mL of phosphate buffered saline) for tumor growth. The mice were administered when the mean tumor volume reached about 147 mm^3. The test compounds were administered orally at a daily dose of 30 mg/kg. Tumor volume was measured every 3 days with a two-dimensional caliper, and the volume was measured in mm^3 and calculated according to the following formula: V=0.5×a×b^2, where a and b are the long and short diameters, respectively, of the tumor. Anti-tumor efficacy was determined by dividing the mean tumor increase volume of compound-treated animals by the mean tumor increase volume of untreated animals

[5] = system: MDA-MB-231 triple negative breast cancer CDX; assay: In vivo efficacy study 2, MDA-MB-231 triple negative breast cancer CDX model; parameters: species or system BALB/c nude mice
Experimental: as §1
as §2, with “tumor” for “cancer”, “(10×10^6” for “(10×10^6 cells”, “buffer)” for “buffered saline)”, “110” for “147”

XIAP BIR3 = target: T1, XIAP BIR3 (Homo sapiens, UniProt P98170); assay: XIAP BIR3 fluorescence polarization binding assay; conditions: 5 nM probe, 30 nM XIAP BIR3
T1 construct: isolated BIR3 domain of XIAP (amino acids 255-356; XIAP BIR3); His; GST; purchased RBC APT-11-374; host or cells: E. coli
Experimental: (§3) Buffer system (a buffer for cIAP1 BIR3 or XIAP BIR3): 0.1 mollL potassium phosphate, pH 7.5, 0.1% bovine serum albumin, 0.005% Triton X-100 and 1% dimethyl sulfoxide.
(§4) Probe: ARPFAQ-K(5-FAM)-NH2.
(§5) XIAP-BIR3-his: RBC (Cat# APT-11-374), isolated BIR3 domain of XIAP (amino acids 255-356; XIAP BIR3) expressed by E. coli as GST-fusion protein. Condition: 5 nM ARPFAQ-K(5-FAM)-NH2, 20 nM cIAP1 BIR3 and 30 nM XIAP BIR3.
(§6) Firstly, fresh buffer of cIAP1 BIR3 or XIAP BIR3 was prepared, and mixed with 2 folds of cIAP1 BIR3 or XIAP BIR3 solution. A solution of test compound completely dissolved in 100% DMSO via ultrasonication was added to the buffer containing cIAP1 BIR3 or XIAP BIR3. The mixture was added with 2 folds of probes, mixed and incubated for 60 min in the dark at room temperature. Fluorescence polarization was measured and mP value was calculated, finally giving an IC50 value.

cIAP1 BIR3 = target: T2, cIAP1 BIR3 (Homo sapiens, UniProt Q13490); assay: cIAP1 BIR3 fluorescence polarization binding assay; conditions: 5 nM probe, 20 nM cIAP1 BIR3
T2 construct: isolated BIR3 domain of human cIAP1 (amino acids 258-363); cIAP1; His; GST; purchased RBC APT-11-370; host or cells: E. coli
Text: as §3, §4
cIAP1-BIR3-his: RBC (Cat# APT-11-370), isolated BIR3 domain of human cIAP1 (amino acids 258-363; cIAP1
BIR3) expressed by E. coli as GST-fusion protein.
as §5, §6

T2 sequence (Q13490 258-363): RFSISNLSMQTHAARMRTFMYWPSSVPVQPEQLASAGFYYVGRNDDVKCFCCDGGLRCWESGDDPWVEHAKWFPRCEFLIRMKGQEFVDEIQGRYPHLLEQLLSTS
T1 sequence (P98170 255-356): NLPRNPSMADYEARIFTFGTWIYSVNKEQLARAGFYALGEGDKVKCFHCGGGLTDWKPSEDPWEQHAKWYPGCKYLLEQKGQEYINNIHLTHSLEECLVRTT

## CN[C@@H](C)C(=O)N[C@H](C(=O)N1CCC[C@H]1Cn1cc(C(C)=O)c2cc(Cl)ccc21)C1CCCCC1
[1]; 25° C. and 80% RH
  hygroscopic weight gain: 0.72%
[1]; weight gain at 25° C./80% RH
  Classification of hygroscopicity: slightly hygroscopic
[2]; 25° C.-60% RH-3 months
  Content of crystalline form A (%): 98%
  Impurity content (%): 1.16%
[2]; 25° C.-60% RH-6 months
  Content of crystalline form A (%): 99.5%
  Impurity content (%): 1.12%
[2]; 25° C.-60% RH-9 months
  Content of crystalline form A (%): 98.2%
  Impurity content (%): 1.22%
[2]; 25° C.-60% RH-12 months
  Content of crystalline form A (%): 100.2%
  Impurity content (%): 1.09%
[2]; 40° C.-75% RH-1 month
  Content of crystalline form A (%): 99.3%
  Impurity content (%): 1.2%
[2]; 40° C.-75% RH-2 months
  Content of crystalline form A (%): 98.1%
  Impurity content (%): 1.19%
[2]; 40° C.-75% RH-3 months
  Content of crystalline form A (%): 97.8%
  Impurity content (%): 1.13%
[2]; 40° C.-75% RH-6 months
  Content of crystalline form A (%): 98.5%
  Impurity content (%): 1.12%
[2]; Day 0
  Content of crystalline form A (%): 98.2%
  Impurity content (%): 1.19%
[3]; 25° C.-92.5% RH-5 days
  Content of crystalline form A (%): 99.1%
  Impurity content (%): 1.16%
[3]; 25° C.-92.5% RH-10 days
  Content of crystalline form A (%): 98.8%
  Impurity content (%): 1.13%
[3]; 25° C.-92.5% RH-30 days
  Content of crystalline form A (%): 99.2%
  Impurity content (%): 1.19%
[3]; 60° C.-5 days
  Content of crystalline form A (%): 99%
  Impurity content (%): 1.16%
[3]; 60° C.-10 days
  Content of crystalline form A (%): 98.2%
  Impurity content (%): 1.14%
[3]; 60° C.-30 days
  Content of crystalline form A (%): 99.1%
  Impurity content (%): 1.19%
[3]; Day 0
  Content of crystalline form A (%): 98.2%
  Impurity content (%): 1.19%
[3]; Irradiation-5 days
  Content of crystalline form A (%): 97.8%
  Impurity content (%): 1.12%
[3]; Irradiation-10 days
  Content of crystalline form A (%): 99.3%
  Impurity content (%): 1.13%
[3]; the various test conditions of Tables 4 and 5
  Crystalline form stability by XRPD versus day 0: stable

## CN[C@@H](C)C(=O)N[C@H](C(=O)N1CCC[C@H]1Cn1cc(C(C)=O)c2cc(Cl)ccc21)C1CCCCC1 [Compound of formula (I)]
[4]; 6 days, 30 mg/kg oral daily
  Tumor volume (mm^3): 214 mm^3
[4]; 13 days, 30 mg/kg oral daily
  Tumor volume (mm^3): 282 mm^3
[4]; 20 days, 30 mg/kg oral daily
  Tumor volume (mm^3): 810 mm^3
[4]; Day 0, 30 mg/kg oral daily
  Tumor volume (mm^3): 147 mm^3
[5]; 5 days, 30 mg/kg oral daily
  Tumor volume (mm^3): 111 mm^3
[5]; 12 days, 30 mg/kg oral daily
  Tumor volume (mm^3): 86 mm^3
[5]; 20 days, 30 mg/kg oral daily
  Tumor volume (mm^3): 177 mm^3
[5]; Day 0, 30 mg/kg oral daily
  Tumor volume (mm^3): 110 mm^3
XIAP BIR3
  IC50: 29.9 nM
cIAP1 BIR3
  IC50: 5 nM
